These results are taken from US12331040B2 (Karyopharm Therapeutics Inc., priority 2013, dated 2025).

The test system of data set [1] is HEP 3B cells. Nature of the data set: MTT cell proliferation assay. In kind it is cell-based. The conditions noted are these: Homo sapiens, Hep3B; HEP 3B cells; 72-hour MTT; read-out: HEP 3B MTT IC50. For orientation: Tetrazolium dyes change colour on reduction, which living cells bring about.
Data set [2] deals with HL-60 cells. Nature of the data set: MTT cell proliferation assay. Type of data set: cell-based. The note with it: Homo sapiens; HL-60 cells; 72-hour MTT; read-out: HL-60 MTT IC50.
Data set [3] concerns Hep G2 cells. Nature of the data set: MTT cell proliferation assay. The note with it: Homo sapiens, HepG2; Hep G2 cells; 72-hour MTT; read-out: Hep G2 MTT IC50. Type of data set: cell-based.
Data set [4] deals with RPMI8226 cells. In words: MTT cell proliferation assay. Type of data set: cell-based. The conditions noted are these: Homo sapiens, RPMI-8226; RPMI8226 cells; 72-hour MTT; read-out: RPMI8226 MTT IC50.
Data set [5] concerns BT-549 cells. In words: MTT cell proliferation assay. The note with it: Homo sapiens, 72-hour MTT. In kind it is cell-based. On the procedure:
(§1) The MTT cell proliferation assay was used to study the cytotoxic properties of the compounds. The assay was performed according to the method described by Roche Molecular Biochemicals, with minor modifications. The assay is based on the cleavage of the tetrazolium salt, MTT, in the presence of an electron-coupling reagent. The water-insoluble formazan salt produced must be solubilized in an additional step. Cells grown in a 96-well tissue culture plate were incubated with the MTT solution for approximately 4 hours. After this incubation period, a water-insoluble formazan dye formed. After solubilization, the formazan dye was quantitated using a scanning multi-well spectrophotometer (ELISA reader). […] The cells were seeded at 5,000-10,000 cells in each well of 96-well plate in 100 μL of fresh culture medium and were allowed to attach overnight. The stock solutions of the compounds were diluted in 100 μL cell culture medium to obtain eight concentrations of each test compound, ranging from 1 nM to 30 μM. […] All optical densities were measured at 490 nm using a Vmax Kinetic Microplate Reader (Molecular Devices). In most cases, the assay was performed in duplicate and the results were presented as a mean percent inhibition to the negative control±SE. The following formula was used to calculate the percent of inhibition: Inhibition (%)=(1−(ODo/OD))×100.
(§2) Compounds 504, 510, 525 and 585 were further tested against selected solid and hematological cancer cell lines and selected normal cell lines in a 72-hour MTT cell proliferation assay.

For data set [6], the system named is HCC-4006 cells. Nature of the data set: MTT cell proliferation assay. The conditions noted are these: Homo sapiens, HCC4006, 72-hour MTT. Type of data set: cell-based. On the procedure:
as §1, §2

For data set [7], the system named is HCT116 cells. Nature of the data set: MTT cell proliferation assay. In kind it is cell-based. The conditions noted are these: Homo sapiens, HCT-116, 72-hour MTT. As for the experimental part: as §1, §2
Data set [8] concerns HS-Sultan cells. Nature of the data set: MTT cell proliferation assay. Type of data set: cell-based. The conditions noted are these: 72-hour MTT. On the procedure:
as §1, §2

Data set [9] has as its system MHCC97H cells. In words: MTT cell proliferation assay. In kind it is cell-based. The conditions noted are these: Homo sapiens, 72-hour MTT. On the procedure:
as §1, §2

For data set [10], the system named is NCI-H2030 cells. In words: MTT cell proliferation assay. Type of data set: cell-based. The note with it: Homo sapiens, 72-hour MTT. As for the experimental part:
as §1, §2

Data set [11] has as its system TF-1 cells. Nature of the data set: MTT cell proliferation assay. Type of data set: cell-based. The conditions noted are these: Homo sapiens, 72-hour MTT. As for the experimental part:
as §1, §2

The test system of data set [12] is U-266 cells. Nature of the data set: MTT cell proliferation assay. In kind it is cell-based. The note with it: Homo sapiens, 72-hour MTT. As for the experimental part:
as §1, §2

Data set [13] relates to U118MG cells. In words: MTT cell proliferation assay. In kind it is cell-based. The note with it: Homo sapiens, U-118-MG, 72-hour MTT. As for the experimental part:
as §1, §2

The subject of data set [14] is PAK4 signalling in NHDF cells. In words: Western blots of PAK4 signalling in normal cells (NHDF). In kind it is cell-based, human. The note with it: NHDF normal cell line; 72-hour treatment, increasing concentrations; Western blot. On the procedure:
Normal human dermal fibroblasts (NHDF) and normal lung cells (IMR-90) were treated with Compound 585 for 72 hours, at which time the cells were lysed in RIPA buffer. The lysates were run on SDS-PAGE and Western blots of phospho-PAK4, PAK4, phospho-cofilin, cofilin, phospho-β-catenin, β-catenin, PARP and caspase-3 were performed.
In general terms: In western blotting, separated proteins are transferred to a membrane and probed.

For data set [15], the system named is Hep 3B xenografts. Nature of the data set: Hep3B hepatocellular carcinoma xenograft in SCID mice. Type of data set: in vivo. As for the experimental part:
The effects of Compound 585 were evaluated on tumor growth using a Hep3B hepatocellular carcinoma xenograft model in SCID mice. Hep 3B (ATCC […]) hepatocellular carcinoma cells were obtained from ATCC. These cells were grown in DMEM medium supplemented with 10% fetal bovine serum and 1% penicillin and streptomycin. Cells were sub-cultured by dilution at a ratio of 1:4. Hep3B cells were harvested by centrifugation and counted using a hemocytometer. Cells were resuspended in PBS at a 5×10^7 cells per mL. Cells were placed on ice, then mixed with an equal volume of Matrigel™ (BD Biosciences CB-40234). This mixture was kept on ice and injected into the left flank of mice in a volume of 0.2 mL, equivalent to 5×10^6 cells per mouse. Thirty-two (32) SCID mice were inoculated subcutaneously in the left flank with 5×10^6 Hep 3B cells. Treatment was initiated when the tumors reached a mean volume of 103.7 mm3 (standard deviation±30 mm^3, range 17-183 mm^3). Mice were allocated to four (4) groups of eight (8) mice such that mean tumor volume in each group was within the range of 95 to 104 mm^3. Mice were treated with vehicle, standard of care control (doxorubicin), or Compound 585. With the exception of doxorubicin (which was given IP), all compounds were given by oral gavage. […] Animal weights and conditions were recorded daily, and tumors were measured on Mondays, Wednesdays and Fridays.

In data set [16] the test system is cancer cell lines. Nature of the data set: 72-hour MTT cell proliferation assay, summary over the cancer cell lines tested. In kind it is cell-based. On the procedure: as §1, §2

Each structure is given as a SMILES string. A value given as a limit tells only on which side of the number the result lay.

A word on the IC50: it is the concentration needed to halve the response being measured.

On to `Nc1ccc(/C=C/C(=O)NCc2cc3cc(-c4ccc(C(=O)N5CCC(F)(F)CC5)cn4)cc(C(F)(F)F)c3o2)cn1` [Compound 585, (E)-3-(6-aminopyridin-3-yl)-N-((5-(5-(4,4-difluoropiperidine-1-carbonyl)pyridin-2-yl)-7-(trifluoromethyl)benzofuran-2-yl)methyl)acrylamide], for which the half-inhibitory concentration (IC50) in [1] was 70 nM; in [2], 210 nM; in [3], 160 nM; in [4], 150 nM; in [5], 1530 nM; in data set [6], 740 nM. In addition, the IC50 in data set [7] is 9820 nM; in data set [8], 200 nM; in data set [9], above 10000 nM; in data set [10], 300 nM; in data set [11], 60 nM; in data set [12] it was 310 nM. Also, half-maximal inhibition in [13] (IC50) required 50 nM. In [14], the “effect on PAK4 signalling (phospho-PAK4, PAK4, phospho-cofilin, cofilin, phospho-β-catenin, β-catenin, PARP, caspase 3)” value is “little to no effect”. For the same compound, the “toxicity (side effects, weight loss)” value in data set [15] (Hep 3B xenograft model, minimal or no side effects or weight loss up to 200 mg/kg daily dose) was “without major toxicity”. The “mean tumor volume of Hep 3B xenografts” value in data set [15] (SCID mice, 20 or 60 mg/kg PO daily) is “tumor growth inhibition”. The “share of the hematological cancer cell lines tested with an IC50 of less than 500 nM” value in data set [16] (30/33 hematological cancer cell lines) is 91%. Moreover, the “share of the solid cancer cell lines tested with an IC50 of less than 500 nM” value in data set [16] (42/93 solid cancer cell lines) was 45%. The “share of the cancer cell lines tested with an IC50 of less than 1 μM” value in data set [16] (91/126 cancer cell lines) was found to be 72%.
